Results: patent US7989495B2, “Compositions and methods for inhibiting NF-κB mediated tumorigenicity and adhesion dependent survival of cancer cells” (University of Utah Research Foundation, priority 2002, dated 2011)

How the values were obtained:
[1] = system: HT-29 cells; assay: One-hour cell adhesion assay (crystal violet); format: cell-based; settings: HT-29 pretreated three days (3 hours elsewhere in the source) with various concentrations
Experimental: The data points represent the average percent of annexin V-positive, propidium iodide-negative cells (of the total cells counted) from triplicate experiments. The error bars represent the standard error of the means. […] The results shown are a graphic representation of individual flow cytometry results expressed as the percentage of cells that were annexin V-positive of those that excluded propidium iodide. […] An immunoblot of the lysates for cleaved PARP was performed. Each lane represents equal total protein concentrations. […] The cells were allowed to adhere to plastic dishes for 1 hour after which they were washed gently in PBS and stained with crystal violet. The crystal violet stained cells were solubilized in deoxycholate and the absorbance detected in a spectrophotometer at 590 nm. The adherent cells were expressed as a fraction of the controls Each data point represents the average of triplicate experiments and the error bars the standard errors of the means.
Even though BAY 11-7085 induced a loss of cell adhesion, it was important to show whether HT-29 cells were actually susceptible to anoikis.

[2] = system: NF-κB (p65) binding to NF-κB consensus oligonucleotides; assay: NF-κB binding activity assay (Trans-AM) on lysates of treated HT-29 cells; format: cell-based
Experimental: The transiently suspended cells were lysed and allowed to bind to DNA oligonucleotides, containing the NF-κB consensus binding site, that were immobilized to 96-well plates. NF-κB protein bound to the oligonucleotides was detected by an antibody to the p65 subunit that only recognized p65 that is bound to DNA. The positive control was HeLa cells that were stimulated with TNFα A control was performed using excess free NF-κB oligonucleotides (Competitor). […] NF-κB binding activity was determined by the TransAM assay as in FIG. 5A. […] The data shown represent typical results of three separate experiments. […] An immunoblot for COX-2 was performed.
Activation of NF-κB was also determined using the Trans-AM™ assay (Active Motif, Carlsbad, Calif.) per the manufacturer's instructions. (Renard et al., 2001) Briefly, cell monolayers on 60 mm dishes were washed with ice-cold PBS and removed by incubating in trypsin-PBS or scraping. The cells were centrifuged for 10 minutes at 1,000 rpm at 4° C. and resuspended for 10 minutes in 100 μl of 4° C. lysis buffer (20 mM HEPES (pH 7.5), 350 mM NaCl, 20% glycerol, 1% Igepal-CA630, 1 mM MgCl2, 0.5 mM EDTA, 0.1 mM EGTA, 1 μl of 1 M dithiothreitol and 10 μl of protease inhibitor cocktail (proprietary) per ml of lysis buffer). The lysates were centrifuged for 20 minutes at 14,000 g at 4° C. Lysates containing 5 μg of total protein were added to 20 μl of lysis buffer per well in 96-well dishes containing immobilized oligonucleotides corresponding to the NF-κB consensus DNA binding site (5′-GGGACTTTCC-3′) (SEQ ID NO:2). The plate was covered with an adhesive film and incubated for 1 hour at room temperature on a rocker. The wells were then washed three times with 200 μl per well of washing buffer (100 mM phosphate buffer (pH 7.5), 500 mM NaCl, 1% Tween). 100 μl of p65subunit monoclonal antibody (the p65 antibody supplied with the kit only recognizes p65-containing NF-κB heterodimers that are bound to DNA containing the NF-κB consensus binding sequence) was diluted 1:1,000 in 1× antibody binding buffer (4 mM HEPES (pH 7.5), 120 mM KCl, 8% glycerol, 1% bovine serum albumin) and added to each well and incubated for 1 hour at room temperature. The wells were washed with 100 μl of washing buffer three times. 100 μl of horseradish peroxidase-conjugated secondary antibody diluted 1:1,000 in 1× antibody binding buffer was added to each well and incubated for 1 hour at room temperature without agitation. […] 100 μl of stop solution (0.5 M H2SO4) was added to each well after which the absorbance was determined on a plate spectrophotometer at 450 nm. Specificity of binding was determined using 200-fold excess wildtype NF-κB oligonucleotides added at the time the cell lysates were added to the wells. […]

SMILES: CC(C)(C)c1ccc(S(=O)(=O)/C=C/C#N)cc1 [BAY 11-7085, (2E)-3-[4-(tertiarybutylphenyl)sulfonyl]-2-propenenitrile]
- inhibition of cell adhesion [1]: significant and rapid inhibition of cell adhesion at high concentrations
- constitutive NF-κB activation in adherent cells ([2]; adherent HT-29, increasing concentrations, 8 hours): relatively unaffected
- inhibition of constitutive NF-κB activation in adherent cells ([2]; adherent colon cancer cells, doses up to 50 μM): could not be inhibited
- inhibition of NF-κB activation caused by readhesion ([2]; transiently suspended HT-29, increasing concentrations, 8 hours): dose-related inhibition of this NF-κB activation
- inhibition of NF-κB activation induced by readhesion ([2]; transiently suspended colon cancer cells, as little as 10 μM): almost totally inhibited
